# Experimental data as given in patent US6518278B1, “Carcinostatic substance for compatible administration, process of administrating same and process of rapidly inspecting same” (Debio Pharm S.A., priority 1994, dated 2003).
# Several values for one entry are separate records, joined by “and”; a condition that tells them apart may be missing. Equal entries are not always repeated. Entries after “also recorded” stand apart in the source; their conditions may differ.
# Tested on: human leutecyte strain cell (RPMI-8402)
# Assay: Extinction effect of compatible administration of l-OHP and a compatible agent on tumor cells (compatible efficiency OE)
# Type: cell-based
# Conditions: for Compatible Effects of l-OHP and Compatible Agent, Simultaneous Administration: both added day 1
# Protocol: In the evaluation of the extinction effect of the tumor cells of the respective combinations, a pure extinction effect produced by the compatible administration of the compatible agent and the l-OHP is calculated by subtracting an extinction effect of a control (no carcinostatic substance is employed).
# The compatibly administration effect is calculated by employing an Equation (1) described later. When the value (%) calculated by this Equation is between 85 and 115%, the compatible administration effect is evaluated to be an additive effect. When the value is below 85%, it is evaluated to be below the additive effect. When the value is over 115%, it is evaluated to be a synergistic effect, ±15% is a reliability limit or a measurement error.
# A target tumor cell was a human leutecyte strain cell (RPMI-8402 of Gibuko K.K.). To these cells was added blood serum of a cow embryo (15%, Gibuko K.K.) to prepare a cell floating liquid of which the number of the cells was 10^6/ml in a cultivation bottle (tradename; Sumiron of Sumitomo Bakelite o., Ltd.) having a volume of 6 ml. A plenty of the cultivation bottles having the cell floating liquid therein were prepared, and the following experiments were conducted while selecting one kind of a compatible agent among cisplatin, 5-FU, irinotecane, adriamycin, etoposide, mitomycin, mitoxantrone, bleomycin, vincristin and vindecin. The time schedules of the controls (no addition of medicines, addition of only the l-OHP and addition of only a compatible agent, and specified in the below items (1) to (4)) and of the compatible administration of the compatible agent and the l-OHP are shown in FIG. 10.
# (1) No medicine was added (control).
# (2) Only the l-OHP was added at a second day.
# (3) A large amount of compatible agents were added at a first day ([…] of the cisplatin, 10 μg/ml of the 5-FU, 0.05 μg/ml of the adriamycin and 1 μg/ml of the etoposide, and for the comparison purpose, 0.05 μg/ml of the vincristin and 0.06 μg/ml of the vindecin). The adding amount of the irinotecano was fixed to 10 μg/ml, and the addition amount of the l-OHP was 5 μg/ml.
# (4) A small amount of compatible agents were added at a first day (0.5 μg/ml of the cisplatin, 5 μg/ml of the 5-FU, 0.01 μg/ml of the adriamycin and 0.5 μg/ml of the etoposide, and for the comparison purpose, 0.01 μg/ml of the vincristin and 0.01 μg/ml of the vindecin). The adding amount of the irinotecane was fixed to 10 μg/ml, and the addition amount of the l-OHP was 1 μg/ml.
# (5) The l-OHP and a large amount (the same as that of the above item (3) and so forth in the following items) of the compatible agents were simultaneously added at a first day.
# (6) The l-OHP and a small amount (the same as that of the above item (4) and so forth in the following items) of the compatible agents were simultaneously added at a first day.
# (7) The l-OHP was added at a first day and a large amount of the compatible agents were added at a second day.
# (8) The l-OHP was added at a first day and a small amount of the compatible agents were added at a second day.
# (9) The l-OHP was added at a first day and a large amount of the compatible agents were added at a third day.
# (10) The l-OHP was added at a first day and a small amount of the compatible agents were added at a third day.
# (11) The l-OHP was added at a first day and a large amount of the compatible agents were added at a fourth day.
# (12) The l-OHP was added at a first day and a small amount of the compatible agents were added at a fourth day.
# (13) A large amount of the compatible agents were added at a first day and the l-OHP was added at a second day.
# (14) A small amount of the compatible agents were added at a first day and the l-OHP was added at a second day.
# (15) A large amount of the compatible agents were added at a first day and the l-OHP was added at a third day.
# (16) A small amount of the compatible agents were added at a first day and the l-OHP was added at a third day.
# [1] = larger dosage of compatible agent (μg/ml: cisplatin 1, 5-FU 10, irinotecane 10, adriamycin 0.05, vincristin 0.05, vindecin 0.05, etoposide 1, bleomycin 10, mitoxantrone 0.1, mitomycine 1), l-OHP 1 μg/ml (5 μg/ml with irinotecane) added day 1
# [2] = larger dosage of compatible agent (μg/ml: cisplatin 1, 5-FU 10, irinotecane 10, adriamycin 0.05, vincristin 0.05, vindecin 0.05, etoposide 1, bleomycin 10, mitoxantrone 0.1, mitomycine 1), l-OHP 1 μg/ml (5 μg/ml with irinotecane)
# [3] = larger dosage of compatible agent added day 1 (μg/ml: cisplatin 1, 5-FU 10, irinotecane 10, adriamycin 0.05, vincristin 0.05, vindecin 0.05, etoposide 1, bleomycin 10, mitoxantrone 0.1, mitomycine 1), l-OHP 1 μg/ml (5 μg/ml with irinotecane)
# [4] = smaller dosage of compatible agent (μg/ml: cisplatin 0.5, 5-FU 5, irinotecane 10, adriamycin 0.01, vincristin 0.01, vindecin 0.01, etoposide 0.5, bleomycin 1, mitoxantrone 0.05, mitomycine 0.5), l-OHP 1 μg/ml added day 1
# [5] = smaller dosage of compatible agent (μg/ml: cisplatin 0.5, 5-FU 5, irinotecane 10, adriamycin 0.01, vincristin 0.01, vindecin 0.01, etoposide 0.5, bleomycin 1, mitoxantrone 0.05, mitomycine 0.5), l-OHP 1 μg/ml
# [6] = smaller dosage of compatible agent added day 1 (μg/ml: cisplatin 0.5, 5-FU 5, irinotecane 10, adriamycin 0.01, vincristin 0.01, vindecin 0.01, etoposide 0.5, bleomycin 1, mitoxantrone 0.05, mitomycine 0.5), l-OHP 1 μg/ml
Structure (SMILES),"compatible administration effect with l-OHP, summary in words","compatible administration effect with l-OHP, summary in words (listed as 6-FU)","Compatible Effects of l-OHP and Compatible Agent, Time Lag Administration, Addition Administration of Compatible Agent day 2 [1]","Compatible Effects of l-OHP and Compatible Agent, Time Lag Administration, Addition Administration of Compatible Agent day 3 [1]","Compatible Effects of l-OHP and Compatible Agent, Time Lag Administration, Addition Administration of Compatible Agent day 4 [1]","Compatible Effects of l-OHP and Compatible Agent, Simultaneous Administration [2]","Compatible Effects of l-OHP and Compatible Agent, Time Lag Administration, Addition Administration of l-OHP day 2 [3]","Compatible Effects of l-OHP and Compatible Agent, Time Lag Administration, Addition Administration of l-OHP day 3 [3]","Compatible Effects of l-OHP and Compatible Agent, Time Lag Administration, Addition Administration of l-OHP day 4 [3]","effect as % of the expected value (compatible efficiency) (simultaneous administration with l-OHP, which dosage gives which value is not given)","Compatible Effects of l-OHP and Compatible Agent, Time Lag Administration, Addition Administration of Compatible Agent day 2 [4]","Compatible Effects of l-OHP and Compatible Agent, Time Lag Administration, Addition Administration of Compatible Agent day 3 [4]","Compatible Effects of l-OHP and Compatible Agent, Time Lag Administration, Addition Administration of Compatible Agent day 4 [4]","Compatible Effects of l-OHP and Compatible Agent, Simultaneous Administration [5]","Compatible Effects of l-OHP and Compatible Agent, Time Lag Administration, Addition Administration of l-OHP day 2 [6]","Compatible Effects of l-OHP and Compatible Agent, Time Lag Administration, Addition Administration of l-OHP day 3 [6]","Compatible Effects of l-OHP and Compatible Agent, Time Lag Administration, Addition Administration of l-OHP day 4 [6]"
"O=c1[nH]cc(F)c(=O)[nH]1 [5-FU, 5-fluorouracil]",twice an expected value; also recorded: synergistic effects can be obtained in almost all the administration conditions,the additive effect or the synergistic effect regardless of the administration method and the dosage in almost all the cases,• (•: Synergistic Effect),• (•: Synergistic Effect),• (•: Synergistic Effect),• (•: Synergistic Effect),• (•: Synergistic Effect),• (•: Synergistic Effect),• (•: Synergistic Effect),180% and 150%,◯ (◯: Additive Effect),• (•: Synergistic Effect),• (•: Synergistic Effect),• (•: Synergistic Effect),• (•: Synergistic Effect),◯ (◯: Additive Effect),• (•: Synergistic Effect)
COc1cccc2c1C(=O)c1c(O)c3c(c(O)c1C2=O)C[C@@](O)(C(=O)CO)C[C@@H]3O[C@H]1C[C@H](N)[C@H](O)[C@H](C)O1 [adriamycin],the additive effect or the synergistic effect regardless of the administration method and the dosage in almost all the cases; also recorded: synergistic effects can be obtained in almost all the combinations when the l-OHP is added later,–,Δ (Δ: Below Additive Effect),◯ (◯: Additive Effect),◯ (◯: Additive Effect),◯ (◯: Additive Effect),◯ (◯: Additive Effect),• (•: Synergistic Effect),• (•: Synergistic Effect),–,Δ (Δ: Below Additive Effect),• (•: Synergistic Effect),◯ (◯: Additive Effect),◯ (◯: Additive Effect),• (•: Synergistic Effect),◯ (◯: Additive Effect),• (•: Synergistic Effect)
COc1cc([C@@H]2c3cc4c(cc3[C@@H](O[C@@H]3O[C@@H]5CO[C@@H](C)O[C@H]5[C@H](O)[C@H]3O)[C@H]3COC(=O)[C@H]23)OCO4)cc(OC)c1O [etoposide],the additive effect or the synergistic effect regardless of the administration method and the dosage in almost all the cases; also recorded: synergistic effects can be obtained in almost all the combinations when the l-OHP is added later,–,◯ (◯: Additive Effect),◯ (◯: Additive Effect),Δ (Δ: Below Additive Effect),◯ (◯: Additive Effect),• (•: Synergistic Effect),• (•: Synergistic Effect),• (•: Synergistic Effect),–,◯ (◯: Additive Effect),• (•: Synergistic Effect),◯ (◯: Additive Effect),◯ (◯: Additive Effect),• (•: Synergistic Effect),• (•: Synergistic Effect),• (•: Synergistic Effect)
